Source: patent US7682630B2, “Antitumor agent and process for producing the same” (priority 2003, dated 2010)

Assays:
[1] = Release of free drug from the dialysis bag; assay type: physicochemical; settings: same dialysis setting
Description: It is of importance that large molecular weight polymeric drugs having apparent molecular size larger than 10.000, preferably more than 50 KDa such as SMA-anthracyclin micelles, to exert tumor seeking EPR-effect, and thereby ultimately releasing free drug. To verify the drug complexes of the present invention release free drug from the micelle or polymeric conjugate in vitro, 20 mg of SMA-doxorubicin conjugates or SMA-pirarubicin conjugates was dissolved in 5 ml H2O and placed in sealed dialysis bag (M. W cut off 1.000; Spectrapor, Spectrum Laboratories Inc. CA. USA.). The dialysis bag was submerged in 25 ml of H2O with adjusted pH either at 7.4 to resemble circulating blood or pH 5.5 for tumor tissue, using 0.01 M NaOH and 0.01 M HCl, and incubated at 37° C. for several days in the dark. […] The released pirarubicin or doxorubicin outside the dialysis bag was collected at pre-determined time and amount was quantified by absorbance at 480 nm.
When the outside solution was replaced by ethanol the release rate has increased tremendously indicating the disruption of the hydrophobic interaction in the complex between the anthracyclins and the styrene hydrophobic moiety of SMA. One can envisage this hydrophobic environment would be more close to the endosome after internalization of the polymeric micelle into cytoplasm of cancer cell by endocytosis. […]

[2] = Side effects / hematological toxicity in S-180 bearing mice; assay type: in vivo; settings: 10 mg/kg iv
Description: S-180 bearing mice with tumors of about 5-7 mm in diameter were used for this study. Full blood analysis was performed weekly for 4 weeks before and after 1, 2 and 3 weeks of iv injections of either doxorubicin, pirarubicin or their SMA micelle complexes as described above. Blood biochemistry including, alanine aminotransferase (ALT), aspartate aminotransferase (AST), lactic dehydrogenase (LDH) and total creatine phosphokinase (CPK) were measured at 36 hr after i.v. administration of either free drugs or SMA-micelle complexes.
At the same time, the heart, spleen, liver and kidney tissues were stained with hematoxylin-eosin (H&E staining) for determination of cytological tissue toxicity.

Row | Structure (SMILES) | time for free drug to extravasate out of the dialysis tube [1] | Erythrocyte ([2]; 1 week) | Hemoglobin ([2]; 1 week) [g/dL] | Leucocyte ([2]; 1 week) | Survival Rate ([2]; 1 week) [%] | Thrombocyte ([2]; 1 week) | Erythrocyte ([2]; 2 week) | Hemoglobin ([2]; 2 week) [g/dL] | Leucocyte ([2]; 2 week) | Survival Rate ([2]; 2 week) [%] | Thrombocyte ([2]; 2 week) | Erythrocyte ([2]; 3 week) | Hemoglobin ([2]; 3 week) [g/dL] | Leucocyte ([2]; 3 week) | Survival Rate ([2]; 3 week) [%] | Thrombocyte ([2]; 3 week)
1 | COc1cccc2c1C(=O)c1c(O)c3c(c(O)c1C2=O)C[C@@](O)(C(=O)CO)C[C@@H]3O[C@H]1C[C@H](N)[C@H](O)[C@H](C)O1 [doxorubicin] | within a few hours |  |  |  |  |  |  |  |  |  |  |  |  |  |  | 
2 | COc1cccc2c1C(=O)c1c(O)c3c(c(O)c1C2=O)CC(O)(C(=O)CO)CC3OC1CC(N)C(OC2CCCCO2)C(C)O1 (centres unmarked) [Free pirarubicin, pirarubicin] | within a few hours | 490.6 ± 144 ×10,000/mm^3 | 11.1 ± 0.9 | 2533 ± 108 /mm^3 | 100 | 67.7 ± 0.9 ×1,000/mm^3 | 876 ×10,000/mm^3 | 12.1 | 5000 /mm^3 | 25 | 130 ×1,000/mm^3 | 916 ×10,000/mm^3 | 15.7 | 4500 /mm^3 | 25 | 143 ×1,000/mm^3
